Results as given in ChEMBL document CHEMBL1201862, “PubChem BioAssay data set” (2004).
The source made the active and inactive calls.

Tests used:
cells [1] = assay: cells
[2] = NIH3T3 cell viability loss – ATP luminescence, mouse fibroblasts, counter-screen, dose response (AID 2010); format: functional, cell-based;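 also: cells exposed to compound for about 90 hours before reading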
[3] = Trypanosoma cruzi growth suppression in host cells – NIH3T3 host cells, beta-gal luminescence, confirmation (AID 2044); format: functional, cell-based;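 also: intracellular parasites grown in NIH/3T3 mouse fibroblasts as host cells; luminescent beta-galactosidase reporter signal from transgenic T. cruzi replicating inside host cells; inhibitors lower the luminescence signal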
cells [4] = format: functional
Vero = assay: viability of Vero cells under compound – cytotoxicity control for flavivirus capping enzyme inhibitors (AID 588742); format: functional; conditions: Chlorocebus sabaeus
[5] = biological target: T1, Histone-lysine N-methyltransferase NSD2 (Homo sapiens, UniProt O96028); format: biochemical
T1 sequence (O96028 whole entry): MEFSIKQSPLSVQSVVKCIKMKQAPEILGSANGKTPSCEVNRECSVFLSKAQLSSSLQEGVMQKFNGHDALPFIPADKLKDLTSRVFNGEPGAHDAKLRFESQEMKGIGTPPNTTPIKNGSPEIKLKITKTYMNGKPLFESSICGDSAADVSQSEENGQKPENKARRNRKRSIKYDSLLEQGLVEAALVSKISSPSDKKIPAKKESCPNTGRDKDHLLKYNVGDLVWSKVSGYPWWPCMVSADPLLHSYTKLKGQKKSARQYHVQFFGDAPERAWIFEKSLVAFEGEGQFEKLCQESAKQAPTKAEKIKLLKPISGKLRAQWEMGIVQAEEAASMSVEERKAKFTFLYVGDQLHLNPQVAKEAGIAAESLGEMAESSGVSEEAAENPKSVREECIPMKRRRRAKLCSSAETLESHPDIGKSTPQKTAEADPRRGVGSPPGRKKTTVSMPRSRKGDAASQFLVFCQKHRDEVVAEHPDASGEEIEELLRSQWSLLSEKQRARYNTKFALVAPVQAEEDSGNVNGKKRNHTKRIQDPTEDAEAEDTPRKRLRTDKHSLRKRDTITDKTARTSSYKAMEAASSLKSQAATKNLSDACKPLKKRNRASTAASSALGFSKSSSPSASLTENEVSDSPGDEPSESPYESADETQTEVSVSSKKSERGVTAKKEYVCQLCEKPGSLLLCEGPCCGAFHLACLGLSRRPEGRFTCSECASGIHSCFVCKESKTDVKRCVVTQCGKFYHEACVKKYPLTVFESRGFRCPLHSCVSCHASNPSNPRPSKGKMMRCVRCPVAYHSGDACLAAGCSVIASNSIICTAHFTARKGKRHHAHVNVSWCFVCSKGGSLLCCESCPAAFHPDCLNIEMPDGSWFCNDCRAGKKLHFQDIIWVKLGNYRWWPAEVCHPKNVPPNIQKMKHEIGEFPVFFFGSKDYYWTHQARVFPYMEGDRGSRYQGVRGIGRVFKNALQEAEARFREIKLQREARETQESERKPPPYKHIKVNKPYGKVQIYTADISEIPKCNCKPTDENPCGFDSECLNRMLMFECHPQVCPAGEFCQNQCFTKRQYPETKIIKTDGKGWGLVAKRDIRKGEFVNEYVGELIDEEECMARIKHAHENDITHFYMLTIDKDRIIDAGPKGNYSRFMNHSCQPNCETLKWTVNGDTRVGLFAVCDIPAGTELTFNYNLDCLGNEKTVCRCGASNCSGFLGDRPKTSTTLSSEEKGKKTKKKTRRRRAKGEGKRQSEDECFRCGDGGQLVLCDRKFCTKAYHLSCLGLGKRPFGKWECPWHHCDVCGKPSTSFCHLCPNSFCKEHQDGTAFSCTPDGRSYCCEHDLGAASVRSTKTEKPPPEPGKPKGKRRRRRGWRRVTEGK

Nonstructural protein 1 = Nonstructural protein 1 (Influenza A virus, UniProt Q194T2); format: functional, Influenza A virus (A/California/07/2009(H1N1))
[6] = biological target: T2, Zinc finger protein mex-5 (Caenorhabditis elegans, UniProt Q9XUB2); assay: potency of MEX-5 RNA-binding blockers – biochemical, C. elegans, fluorescence polarization, dose response (AID 1960)
T2 sequence (Q9XUB2 whole entry): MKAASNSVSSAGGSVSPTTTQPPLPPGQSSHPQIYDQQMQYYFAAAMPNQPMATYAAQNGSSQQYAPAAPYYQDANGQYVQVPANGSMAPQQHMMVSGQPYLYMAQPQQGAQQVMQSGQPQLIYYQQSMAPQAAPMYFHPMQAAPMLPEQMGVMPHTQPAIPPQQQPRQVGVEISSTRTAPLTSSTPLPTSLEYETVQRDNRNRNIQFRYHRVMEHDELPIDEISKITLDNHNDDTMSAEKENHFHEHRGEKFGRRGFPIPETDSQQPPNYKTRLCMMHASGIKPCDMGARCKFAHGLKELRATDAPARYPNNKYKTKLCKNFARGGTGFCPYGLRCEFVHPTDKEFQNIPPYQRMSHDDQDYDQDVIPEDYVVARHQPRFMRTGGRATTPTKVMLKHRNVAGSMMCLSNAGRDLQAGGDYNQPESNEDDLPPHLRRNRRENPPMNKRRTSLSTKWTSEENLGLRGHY

[7] = Luminescence Cell-Based Dose Response HTS to Identify Activators of Luciferase Translation or Activity in H4 […] Cells. [Related pubchem assays: 1829 (Project Summary), 1814 (Primary HTS)]; format: functional
[8] = Luminescence Cell-Based Dose Confirmation HTS to Identify Activators of 5'UTR Stem-Loop Driven Alpha-Synuclein mRNA Translation in H4 Neuroglioblastoma Cells. [Related pubchem assays: 1829 (Project Summary), 1814 (Primary HTS)]; format: functional
H4 = assay: Luminescence Cell-Based Dose Response HTS to Identify Activators of 5'UTR Stem-Loop Driven Prion Protein mRNA Translation in H4 Neuroglioblastoma Cells. [Related pubchem assays: 1829 (Project Summary), 1814 (Primary HTS)]; format: functional; conditions: Homo sapiens
[9] = biological target: T3, RNA-binding protein pos-1 (Caenorhabditis elegans, UniProt G5EF15); assay: disruptors of C. elegans POS-1 RNA interaction – biochemical, fluorescence polarization, dose response (AID 1964);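 also: purified POS-1 fused to maltose binding protein made in E. coli; potency of compounds blocking POS-1 binding to fluorescent RNA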
T3 sequence (G5EF15 whole entry): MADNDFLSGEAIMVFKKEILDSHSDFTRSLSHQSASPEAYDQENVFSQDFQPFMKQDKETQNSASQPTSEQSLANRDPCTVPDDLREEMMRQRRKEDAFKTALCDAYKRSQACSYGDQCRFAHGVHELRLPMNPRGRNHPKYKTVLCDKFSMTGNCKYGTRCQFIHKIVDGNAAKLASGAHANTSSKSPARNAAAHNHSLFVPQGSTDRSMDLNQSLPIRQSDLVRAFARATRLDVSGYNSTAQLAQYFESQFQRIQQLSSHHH

[10] = biological target: T4, Endoribonuclease toxin MazF (Escherichia coli K-12, UniProt P0AE70); assay: activation of MazEF endoribonuclease cleavage – biochemical, fluorescence, single-stranded RNA substrate, uHTS hits, dose response (AID 588481); format: functional
T4 sequence (P0AE70 whole entry): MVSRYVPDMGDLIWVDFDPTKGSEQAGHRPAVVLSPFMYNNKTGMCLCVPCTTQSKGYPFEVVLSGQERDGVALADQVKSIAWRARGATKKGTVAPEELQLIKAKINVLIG

[11] = biological target: T4, Endoribonuclease toxin MazF; assay: substrate-only fluorescence increase artefacts – biochemical, single-stranded RNase substrate, counter-screen for MazEF activator project, dose response (AID 588502); format: functional
Aminopeptidase N = biological target: T5, Aminopeptidase N (Plasmodium falciparum FcB1/Columbia, UniProt O96935); assay: malaria alanyl aminopeptidase activity blockers – biochemical, fluorogenic H-Leu-NHMec substrate, 1536-well (AID 1445); parameters: species or system Plasmodium falciparum 3D7, 3D7
T5 sequence (O96935 whole entry): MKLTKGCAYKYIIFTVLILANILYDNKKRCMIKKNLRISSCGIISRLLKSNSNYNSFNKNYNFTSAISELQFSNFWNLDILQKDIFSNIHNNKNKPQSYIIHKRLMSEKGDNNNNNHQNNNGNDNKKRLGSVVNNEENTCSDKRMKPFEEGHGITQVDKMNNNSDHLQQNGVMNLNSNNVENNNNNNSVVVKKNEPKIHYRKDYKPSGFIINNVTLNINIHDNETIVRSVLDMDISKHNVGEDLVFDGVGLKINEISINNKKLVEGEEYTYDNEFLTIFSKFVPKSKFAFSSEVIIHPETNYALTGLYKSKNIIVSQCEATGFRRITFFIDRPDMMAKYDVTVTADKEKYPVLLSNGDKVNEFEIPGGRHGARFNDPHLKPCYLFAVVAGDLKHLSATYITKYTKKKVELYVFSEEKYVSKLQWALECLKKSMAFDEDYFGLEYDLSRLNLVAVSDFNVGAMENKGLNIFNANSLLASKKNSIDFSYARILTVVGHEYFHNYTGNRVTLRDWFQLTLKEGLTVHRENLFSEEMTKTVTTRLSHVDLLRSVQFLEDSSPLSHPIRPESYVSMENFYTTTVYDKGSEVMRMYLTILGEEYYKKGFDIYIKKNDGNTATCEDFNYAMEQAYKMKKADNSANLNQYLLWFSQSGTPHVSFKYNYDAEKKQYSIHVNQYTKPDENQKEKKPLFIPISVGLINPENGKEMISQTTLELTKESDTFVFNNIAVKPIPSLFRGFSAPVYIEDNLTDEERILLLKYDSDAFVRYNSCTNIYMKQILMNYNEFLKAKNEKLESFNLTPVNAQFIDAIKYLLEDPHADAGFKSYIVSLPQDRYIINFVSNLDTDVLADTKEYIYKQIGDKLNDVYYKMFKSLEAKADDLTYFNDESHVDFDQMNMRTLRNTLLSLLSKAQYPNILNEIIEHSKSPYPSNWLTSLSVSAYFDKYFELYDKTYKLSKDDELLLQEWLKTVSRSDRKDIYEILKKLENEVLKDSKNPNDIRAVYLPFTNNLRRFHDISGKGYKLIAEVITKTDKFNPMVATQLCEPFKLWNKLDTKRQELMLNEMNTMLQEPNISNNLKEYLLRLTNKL

cells [12] = format: functional, cell-based
[13] = biological target: T6, Microphthalmia-associated transcription factor (Homo sapiens, UniProt O75030); assay: reducers of TRPM1 reporter luminescence, concentration series – cell-based, SK-MEL-5, cherry-picked, set 3, MITF inhibitor project, dose response (AID 493073); format: functional;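 also: SK-MEL-5 melanoma cells with luciferase driven by the MITF target TRPM1 promoter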
T6 sequence (O75030 whole entry): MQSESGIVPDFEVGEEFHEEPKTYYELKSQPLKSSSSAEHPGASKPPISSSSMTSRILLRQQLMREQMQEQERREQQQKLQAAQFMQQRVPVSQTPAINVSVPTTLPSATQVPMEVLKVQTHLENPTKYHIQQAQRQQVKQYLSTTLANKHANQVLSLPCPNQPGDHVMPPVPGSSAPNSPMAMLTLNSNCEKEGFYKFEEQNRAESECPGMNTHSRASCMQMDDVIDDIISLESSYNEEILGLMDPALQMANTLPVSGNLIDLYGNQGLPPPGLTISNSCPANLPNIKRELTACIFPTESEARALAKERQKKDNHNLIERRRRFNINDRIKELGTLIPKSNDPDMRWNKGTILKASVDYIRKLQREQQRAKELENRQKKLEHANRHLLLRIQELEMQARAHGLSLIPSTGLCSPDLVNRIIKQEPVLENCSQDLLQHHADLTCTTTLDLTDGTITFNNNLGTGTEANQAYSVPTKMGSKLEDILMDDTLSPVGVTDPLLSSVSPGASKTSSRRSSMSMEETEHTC

[14] = fluconazole-exposed Candida albicans growth modulators – fluorescence, retest, confirmation (AID 2467); format: functional, cell-based
[15] = NIH-3T3 fibroblast cytotoxicity, dose response, cytotoxicity control, cell-based, fluorescence, Alamar Blue, secondary assay (AID 2327); format: functional;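 also: NIH-3T3 mouse fibroblasts cultured with fluconazole at 8 µg/mL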
[16] = A Cell Based Secondary Assay To Explore Cytotoxicity of Compounds that Sensitize Mycobacterium Tuberculosis to Beta-Lactam Antibiotics.; format: functional
cells [17] = format: functional, cell-based; remark: listed apart in the source
Cytochrome P450 2D6 = Cytochrome P450 2D6 (Homo sapiens, UniProt P10635);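 also: CYP2D6 member of a cytochrome P450 panel assay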
Cytochrome P450 2C9 = Cytochrome P450 2C9 (Homo sapiens, UniProt P11712)
Cytochrome P450 2C9, sequence (P11712 whole entry): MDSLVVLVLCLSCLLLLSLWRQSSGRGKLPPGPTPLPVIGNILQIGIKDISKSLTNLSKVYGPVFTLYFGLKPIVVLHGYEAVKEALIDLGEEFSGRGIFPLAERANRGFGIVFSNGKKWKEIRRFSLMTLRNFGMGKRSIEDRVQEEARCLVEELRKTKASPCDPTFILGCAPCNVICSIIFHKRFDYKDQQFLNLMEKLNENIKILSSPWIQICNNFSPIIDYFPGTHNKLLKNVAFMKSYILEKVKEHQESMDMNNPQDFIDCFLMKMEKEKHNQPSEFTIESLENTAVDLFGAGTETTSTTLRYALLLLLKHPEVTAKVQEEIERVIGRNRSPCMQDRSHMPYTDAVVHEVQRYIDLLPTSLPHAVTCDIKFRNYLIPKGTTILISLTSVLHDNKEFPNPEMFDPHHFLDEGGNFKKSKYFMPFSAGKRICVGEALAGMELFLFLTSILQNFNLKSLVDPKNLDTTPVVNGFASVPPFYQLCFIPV

Cytochrome P450 2D6, sequence (P10635 whole entry): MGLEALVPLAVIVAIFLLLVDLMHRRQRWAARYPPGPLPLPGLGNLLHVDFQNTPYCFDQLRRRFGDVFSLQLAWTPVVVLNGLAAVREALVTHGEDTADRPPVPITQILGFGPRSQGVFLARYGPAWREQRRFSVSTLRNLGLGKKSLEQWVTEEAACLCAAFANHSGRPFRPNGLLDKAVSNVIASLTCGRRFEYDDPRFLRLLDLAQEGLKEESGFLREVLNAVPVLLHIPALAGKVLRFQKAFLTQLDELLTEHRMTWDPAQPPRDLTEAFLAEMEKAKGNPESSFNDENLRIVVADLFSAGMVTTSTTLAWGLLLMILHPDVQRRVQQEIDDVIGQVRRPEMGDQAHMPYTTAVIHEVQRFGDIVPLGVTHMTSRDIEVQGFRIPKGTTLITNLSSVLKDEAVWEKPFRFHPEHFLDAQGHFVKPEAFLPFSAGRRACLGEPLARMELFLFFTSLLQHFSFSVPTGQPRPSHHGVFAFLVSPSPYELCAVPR
Nonstructural protein 1, sequence (Q194T2 whole entry): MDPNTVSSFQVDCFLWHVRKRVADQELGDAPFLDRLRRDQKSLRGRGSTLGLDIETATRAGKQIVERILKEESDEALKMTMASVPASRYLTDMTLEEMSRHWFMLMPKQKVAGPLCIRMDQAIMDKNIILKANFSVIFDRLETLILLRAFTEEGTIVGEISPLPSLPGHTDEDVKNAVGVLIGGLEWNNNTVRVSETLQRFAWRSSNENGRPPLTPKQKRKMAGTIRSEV

SMILES	EC50 (cells [1])	EC50 [2]	EC50 [3]	EC50 [10]	EC50 [11]	also measured
CC(C)Oc1cccc(C(=O)C2CCCN(Cc3ccc(Oc4ncccn4)cc3)C2)c1 (stereo not given)	0.081 µM (active)	> 60 µM (not active)	< 0.1 µM (active)			
O=C(c1ccc([N+](=O)[O-])o1)N1CCc2ccccc2C1	0.042 µM (active)	> 60 µM (not active)	< 0.1 µM (active)			IC50 (cells [4]): 0.45 µM (active)
CCOC(=O)C1=C(C)N=c2s/c(=C/c3cccc([N+](=O)[O-])c3O)c(=O)n2C1c1ccccc1 (stereo not given)						CC50 (Vero): 31.1 µM (active); AC50 [5]: > 20 µM (inactive); IC50 (Nonstructural protein 1): 22.1 µM (active)
CCN1C(=O)/C(=C2/C=Cc3ccccc3N2C)OC1=S				> 99 µM (inactive)	> 99 µM (inactive)	EC50 [6]: 3.94 µM (inconclusive); EC50 [7]: 4.49 µM (active); EC50 [8]: 2.39 µM (active); EC50 (H4): 39.4 µM (active); EC50 [9]: 55.8 µM (active)
CCc1nnc(NS(=O)(=O)c2ccc(NC(=S)NC(=O)c3ccc(OC)cc3)cc2)s1						IC50 (Aminopeptidase N): 60.5 µM (active)
CC(=O)n1c(/C=N/c2ccc(Cl)cc2)c(O)c2ccccc21				> 99 µM (inactive)	31.1 µM (inactive)	
CCOc1cccc(CN2CCCC(N3CCc4cc(OC)c(OC)cc4C3)C2)c1O (stereo not given)	0.084 µM (active)	> 60 µM (not active)	< 0.1 µM (active)			
Nc1nonc1C(=O)N/N=C/c1ccc(-c2ccc(Cl)c(C(=O)O)c2)o1						IC50 (Aminopeptidase N): 43.8 µM (active)
O=C(CSCC(=O)Nc1ccccc1)N/N=C/c1c(O)ccc2ccccc12				> 99 µM (inactive)	> 99 µM (inactive)	EC50 (cells [12]): 9.25 µM (active); AC50 [13]: 3.34 µM (active); EC50 [14]: > 38 µM (not active); EC50 [15]: > 160 µM (inactive); CC50 [16]: 6.22 µM (active); EC50 (cells [17]): > 350 µM (not active)
O=C(CCCn1cnc([N+](=O)[O-])n1)Nc1ccc(Cl)c(Cl)c1	0.054 µM (active)	> 60 µM (not active)	< 0.1 µM (active)			AC50 (Cytochrome P450 2D6): 15.8 µM (inconclusive); AC50 (Cytochrome P450 2C9): 15.8 µM (inconclusive)
Cc1ccc(-c2nn(C)c(=O)c3ccccc23)cc1CNC(=O)c1ccco1						IC50 (Aminopeptidase N): 21.1 µM (active)
Cc1ccc2cc3c(N)c(C(=O)Nc4c(C)[nH]c(=O)[nH]c4=O)sc3nc2c1				> 99 µM (inactive)	> 99 µM (inactive)	
